Structures can show the parent of a compound that is named as a salt. Where two headings read alike, the source gives them in different places.
Assays:
Type in all cases: in vivo
[1] = test system: wheat leaf rust, Puccinia recondita; experiment: whole plant or invertebrate; conditions: foliar; for pest or weed control at 280.212 g/ha: read-out: % Control (with 1" of rain), foliar, 0.25 lb., 1" of rain; for pest or weed control at 1120.85 g/ha: read-out: % Control (with 1" of rain), foliar, 1 lb., 1" of rain
[2] = test system: wheat leaf rust, Puccinia recondita
[3] = test system: wheat leaf rust, Puccinia recondita; experiment: whole plant or invertebrate; conditions: foliar; for pest or weed control at 280.212 g/ha: read-out: % Control (without rain), foliar, 0.25 lb.; for pest or weed control at 1120.85 g/ha: read-out: % Control (without rain), foliar, 1 lb.
[4] = test system: wheat leaf rust, Puccinia recondita; experiment: Foliar systemic activity on leaf rust
Source text: Another type of systemic test was run in which pots of approximately 5 inch high wheat plants were sprayed with varying concentrations of the test compound. Thirty-six hours later they were sprayed six minutes in a rain machine which amounted to about one inch of normal rainfall. The plants were then placed in a greenhouse for 7 days and then inoculated with a spore suspension of wheat leaf rust, Puccinia recondita. About 7 days later lesion counts were made on ten leaves representing the sprayed leaves and new growth from each replicate and compared with similar pots of wheat plants which were untreated with a chemical and the percent disease control determined. Disease control on the new growth is a measure of systemic activity. The commercial product known by the trademarked name Plantvax, which is 2,3-dihydro-5-carboxanilido-6-methyl-1,4-oxathiin-4,4-dioxide, was used as a standard.

SMILES	pest or weed control at 280.212 g/ha [1]	pest or weed control at 1120.85 g/ha [1]	% Systemic Wheat Leaf Rust Control ([2]; 2.5 ppm in soil)	% Systemic Wheat Leaf Rust Control ([2]; 5 ppm in soil)	pest or weed control at 280.212 g/ha [3]	pest or weed control at 1120.85 g/ha [3]	% Systemic Wheat Leaf Rust Control ([2]; 10 ppm in soil)	% Rust Control, New growth ([4]; 1/2 lb./100 gal.)	% Rust Control, Sprayed Leaf ([4]; 1/2 lb./100 gal.)	% Rust Control, New growth ([4]; 1/6 lb./100 gal.)	% Rust Control, Sprayed Leaf ([4]; 1/6 lb./100 gal.)	% Rust Control, New growth ([4]; 1/12 lb./100 gal.)	% Rust Control, Sprayed Leaf ([4]; 1/12 lb./100 gal.)	% Systemic Wheat Leaf Rust Control ([2]; 20 ppm in soil)	% Control (with 1" of rain) ([1]; 0.25 lb.)	% Control (with 1" of rain) ([1]; 1 lb.)	% Control (without rain) ([3]; 0.25 lb.)	% Control (without rain) ([3]; 1 lb.)
CCCn1cnnc1 [Example 1, 4-n-propyl-1,2,4-triazole]	87%	100%	99%	100%	100%	100%	–	–	–	–	–	–	–	–	–	–	–	–
CCCCn1cnnc1 [Example 3, 4-n-butyl-1,2,4-triazole]	100%	100%	100%	100%	100%	100%	100%	100%	99%	98%	99%	85%	97%	–	–	–	–	–
CC(C)Cn1cnnc1 [Example 4, 4-isobutyl-1,2,4-triazole]	30%	60%	–	–	95%	95%	–	–	–	–	–	–	–	100%	–	–	–	–
CC(C)CCn1cnnc1 [Example 8, 4-isopentyl-1,2,4-triazole]	98%	100%	–	–	98%	99%	–	–	–	–	–	–	–	100%	–	–	–	–
CCCCCCn1cnnc1 [Example 9, 4-n-hexyl-1,2,4-triazole]	100%	100%	77%	92%	100%	100%	–	–	–	–	–	–	–	–	–	–	–	–
COCCCn1cnnc1 [Example 46, 4-(3-methoxypropyl)-1,2,4-triazole]	99%	100%	96%	99%	100%	100%	–	–	–	–	–	–	–	–	–	–	–	–
c1ccc(Cn2cnnc2)cc1 [Example 49, 4-benzyl-1,2,4-triazole]	100%	100%	96%	98%	95%	100%	99%	87%	99%	54%	76%	46%	42%	–	–	–	–	–
Clc1ccc(-n2cnnc2)cc1Cl [Example 57, 4-(3,4-dichlorophenyl)-1,2,4-triazole]	40%	60%	54%	–	80%	90%	68%	–	–	–	–	–	–	–	–	–	–	–
Clc1ccc(-n2cnnc2)nc1 [Example 63, 4-(5-chloro-2-pyridyl)-1,2,4-triazole]	45%	85%	–	–	90%	95%	–	–	–	–	–	–	–	95%	–	–	–	–
CCCn1cnnc1S [Example 75, 3-mercapto-4-n-propyl-1,2,4-triazole]	100%	99%	40%	82%	91%	100%	84%	–	–	–	–	–	–	–	–	–	–	–
CCCCCn1cnnc1S [Example 78, 3-mercapto-4-n-pentyl-1,2,4-triazole]	100%	100%	97%	97%	97%	100%	97%	92%	98%	79%	96%	57%	91%	–	–	–	–	–
CCCCCCn1cnnc1S [Example 79, 3-mercapto-4-n-hexyl-1,2,4-triazole]	100%	100%	0%	0%	100%	100%	54%	65%	96%	48%	88%	38%	85%	–	–	–	–	–
Sc1nncn1Cc1ccccc1 [Example 84, 3-mercapto-4-benzyl-1,2,4-triazole]	100%	100%	0%	34%	100%	100%	64%	54%	78%	34%	63%	36%	54%	–	–	–	–	–
CCCCn1c(S)nnc1C(=O)O [Example 95, triethanolamine salt of 3-mercapto-4-n-butyl-5-carboxy-1,2,4-triazole]	–	–	98%	99%	–	–	100%	90%	90%	75%	78%	63%	46%	–	100%	100%	98%	99%
CCCCn1c(S)nnc1C(=O)OCC [Example 98, sodium salt of 3-mercapto-4-butyl-5-ethoxycarbonyl-1,2,4-triazole]	–	–	85%	97%	–	–	99%	–	–	–	–	–	–	–	100%	100%	86%	100%
CCCCn1c(SC(=S)N(C)C)nnc1C(=O)O [Example 101, 3-dimethylthiocarbamoylmercapto-4-n-butyl-5-carboxy-1,2,4-triazole]	100%	100%	88%	96%	100%	100%	100%	–	–	–	–	–	–	–	–	–	–	–
CCCCn1cnn(CCC#N)c1=S [Example 106, 2-(2-cyanoethyl)-4-n-butyl-1,2,4-triazoline-3-thione]	99%	100%	82%	86%	100%	100%	92%	–	–	–	–	–	–	–	–	–	–	–
CCCCn1cnnc1SC(=O)c1ccco1 [Example 124, 3-furoylmercapto-4-n-butyl-1,2,4-triazole]	100%	100%	94%	99%	100%	100%	99%	–	–	–	–	–	–	–	–	–	–	–
CCCCn1cnnc1SCC(=O)c1ccc(OC)cc1 [Example 125, 3-(p-methoxyphenacylmercapto)-4-n-butyl-1,2,4-triazole]	20%	30%	55%	68%	50%	60%	44%	–	–	–	–	–	–	–	–	–	–	–
N#CCCn1ncn(-c2ccccc2)c1=S [Example 126, 2-(2-cyanoethyl)-4-phenyl-1,2,4-triazoline-3-thione]	83%	96%	–	–	93%	96%	–	42%	13%	27%	0%	0%	0%	–	–	–	–	–
O=[N+]([O-])c1ccc(Sc2nncn2-c2ccccc2)c([N+](=O)[O-])c1 [Example 128, 3-(2,4-dinitrophenylmercapto)-4-phenyl-1,2,4-triazole]	84%	90%	–	–	100%	100%	–	–	–	–	–	–	–	–	–	–	–	–
COc1ccc(C(=O)Sc2nncn2-c2ccccc2)cc1 [Example 129, 3-(4-methoxybenzoylmercapto)-4-phenyl-1,2,4-triazole]	100%	99%	–	–	100%	100%	–	–	–	–	–	–	–	–	–	–	–	–
